Test results taken from ChEMBL document CHEMBL1201862, “PubChem BioAssay data set” (2004).
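Five concentrations, 48 hours, 96-well plates. GI50 = concentration required for 50% inhibition of growth.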 Calls of active or inactive are those of the source. Rule as the data show it: active = GI50 up to about 1.1 µM and inactive = higher.

Assays:
Experiment in all cases: inhibition of tumour cell growth, NCI panel, 48 h
OVCAR-5 = system: OVCAR-5
RXF 393 = system: RXF 393
CCRF-CEM = system: CCRF-CEM
DU-145 = system: DU-145
KM12 = system: KM12
SK-MEL-28 = system: SK-MEL-28
M14 = system: M14
PC-3 = system: PC-3
SW-620 = system: SW-620
NCI-H23 = system: NCI-H23
HCT-15 = system: HCT-15
MOLT-4 = system: MOLT-4
OVCAR-3 = system: OVCAR-3
SK-OV-3 = system: SK-OV-3
LOX IMVI = system: LOX IMVI
HCC 2998 = system: HCC 2998
MDA-N = system: MDA-N
OVCAR-4 = system: OVCAR-4
SF-268 = system: SF-268
EKVX = system: EKVX
NCI-H460 = system: NCI-H460
MCF7 = system: MCF7
HCT-116 = system: HCT-116
ACHN = system: ACHN
UACC-62 = system: UACC-62
OVCAR-8 = system: OVCAR-8
NCI-H522 = system: NCI-H522
HL-60 = system: HL-60
SK-MEL-5 = system: SK-MEL-5
BT-549 = system: BT-549
SNB-19 = system: SNB-19
A549 = system: A549
NCI-H226 = system: NCI-H226
MDA-MB-435 = system: MDA-MB-435
COLO 205 = system: COLO 205
SN12C = system: SN12C
SF-295 = system: SF-295
HOP-92 = system: HOP-92
SR = system: SR
RPMI-8226 = system: RPMI-8226
HOP-62 = system: HOP-62
SF-539 = system: SF-539
U-251 = system: U-251
MDA-MB-231 = system: MDA-MB-231
K562 = system: K562
SNB-75 = system: SNB-75
NCI/ADR-RES = system: NCI/ADR-RES
HT-29 = system: HT-29
786-0 = system: 786-0
UO-31 = system: UO-31
IGROV-1 = system: IGROV-1
Hs-578T = system: Hs-578T
CAKI-1 = system: CAKI-1
A498 = system: A498
Malme-3M = system: Malme-3M
SK-MEL-2 = system: SK-MEL-2
UACC-257 = system: UACC-257
TK-10 = system: TK-10

In the case of Cc1cccc(-c2cc(O)c3cccnc3n2)c1, the GI50 (OVCAR-5) is reported as 2.96 µM (inactive), the GI50 (RXF 393) is reported as 6.24 µM (inactive) and the GI50 (CCRF-CEM) is reported as 935 nM (active). For the same compound, the GI50 (DU-145) was 3.94 µM (inactive), the GI50 (KM12) was 0.173 µM (active) and the GI50 (SK-MEL-28) was 0.406 µM (active). For the same compound, the GI50 (M14) was 0.555 µM (active), the GI50 (PC-3) was 1.12 µM (inactive) and the GI50 (SW-620) was 0.431 µM (active). The GI50 (NCI-H23) was 2.79 µM (inactive), the GI50 (HCT-15) was 0.299 µM and the GI50 (MOLT-4) was 0.902 µM (active). For the same compound, the GI50 (OVCAR-3) was 0.301 µM (active), the GI50 (SK-OV-3) was 569 nM (active) and the GI50 (LOX IMVI) was 0.512 µM (active). The GI50 (HCC 2998) was 1.98 µM (inactive), the GI50 (MDA-N) was 0.0431 µM (active) and the GI50 (OVCAR-4) was 24 µM (inactive). The GI50 (SF-268) was 59 µM (inactive), the GI50 (EKVX) was 2.34 µM (inactive) and the GI50 (NCI-H460) was 0.475 µM (active). For the same compound, the GI50 (MCF7) was 0.378 µM (active), the GI50 (HCT-116) was 0.385 µM (active) and the GI50 (ACHN) was 18.7 µM (inactive). For the same compound, the GI50 (UACC-62) was 0.292 µM (active), the GI50 (OVCAR-8) was 1.35 µM (inactive) and the GI50 (NCI-H522) was 0.553 µM (active). The GI50 (HL-60) was 0.128 µM (active), the GI50 (SK-MEL-5) was 0.467 µM (active) and the GI50 (BT-549) was > 100 µM (inactive). The GI50 (SNB-19) was 1.69 µM (inactive), the GI50 (A549) was 1.34 µM (inactive) and the GI50 (NCI-H226) was 4.44 µM (inactive). The GI50 (MDA-MB-435) was 0.0298 µM (active), the GI50 (COLO 205) was 0.236 µM (active) and the GI50 (SN12C) was 2.75 µM (inactive). For the same compound, the GI50 (SF-295) was 1.36 µM (inactive), the GI50 (HOP-92) was 88.3 µM (inactive) and the GI50 (SR) was 0.0946 µM (active). The GI50 (RPMI-8226) was 0.679 µM (active), the GI50 (HOP-62) was 17.6 µM (inactive) and the GI50 (SF-539) was 0.92 µM (active). The GI50 (U-251) was 0.449 µM (active), the GI50 (MDA-MB-231) was 2.09 µM (inactive) and the GI50 (K562) was 0.0993 µM (active). The GI50 (SNB-75) was 1.26 µM (inactive), the GI50 (NCI/ADR-RES) was 0.618 µM (active) and the GI50 (HT-29) was 0.264 µM (active). For the same compound, the GI50 (786-0) was 0.569 µM (active), the GI50 (UO-31) was > 100 µM (inactive) and the GI50 (IGROV-1) was 0.914 µM (active). For the same compound, the GI50 (Hs-578T) was 0.444 µM (active).
With C[C@@]1(O)C[C@@H](N2C(=O)O[C@@H](c3ccccc3)[C@H]2c2ccccc2)[C@@H]1COCc1ccccc1 the GI50 (CAKI-1) was 22 µM (inactive), the GI50 (OVCAR-5) was 23.1 µM (inactive) and the GI50 (A498) was 18.4 µM (inactive). The GI50 (RXF 393) was 18.8 µM (inactive), the GI50 (Malme-3M) was 20.6 µM (inactive) and the GI50 (DU-145) was 28.5 µM (inactive). The GI50 (SK-MEL-2) was 12.7 µM (inactive), the GI50 (KM12) was 19.6 µM (inactive) and the GI50 (SK-MEL-28) was 18.2 µM (inactive). For the same compound, the GI50 (M14) was 15.8 µM (inactive), the GI50 (PC-3) was 15.9 µM (inactive) and the GI50 (SW-620) was 26 µM (inactive). For the same compound, the GI50 (NCI-H23) was 16.1 µM (inactive), the GI50 (HCT-15) was 24.4 µM and the GI50 (MOLT-4) was 5.41 µM (inactive). The GI50 (OVCAR-3) was 17.3 µM (inactive), the GI50 (LOX IMVI) was 15.9 µM (inactive) and the GI50 (HCC 2998) was 19.8 µM (inactive). For the same compound, the GI50 (MDA-N) was 16.2 µM (inactive), the GI50 (UACC-257) was 15.9 µM (inactive) and the GI50 (OVCAR-4) was 22.9 µM (inactive). For the same compound, the GI50 (SF-268) was 18.2 µM (inactive), the GI50 (EKVX) was 20.5 µM (inactive) and the GI50 (TK-10) was 29.2 µM (inactive). For the same compound, the GI50 (NCI-H460) was 17.7 µM (inactive), the GI50 (MCF7) was 24.5 µM (inactive) and the GI50 (HCT-116) was 19.5 µM (inactive). For the same compound, the GI50 (ACHN) was 26.2 µM (inactive), the GI50 (UACC-62) was 11.3 µM (inactive) and the GI50 (OVCAR-8) was 17.8 µM (inactive). The GI50 (NCI-H522) was 15 µM (inactive), the GI50 (HL-60) was 6.35 µM (inactive) and the GI50 (SK-MEL-5) was 13.7 µM (inactive). The GI50 (BT-549) was 17.5 µM (inactive), the GI50 (SNB-19) was 34.8 µM (inactive) and the GI50 (A549) was 22.6 µM (inactive). For the same compound, the GI50 (NCI-H226) was 20.2 µM (inactive), the GI50 (MDA-MB-435) was 28.4 µM (inactive) and the GI50 (COLO 205) was 15 µM (inactive). For the same compound, the GI50 (SN12C) was 17.4 µM (inactive), the GI50 (SF-295) was 16.4 µM (inactive) and the GI50 (HOP-92) was 19 µM (inactive). For the same compound, the GI50 (SR) was 15 µM (inactive), the GI50 (RPMI-8226) was 7.74 µM (inactive) and the GI50 (HOP-62) was 29.2 µM (inactive). For the same compound, the GI50 (SF-539) was 20.8 µM (inactive), the GI50 (U-251) was 14.6 µM (inactive) and the GI50 (MDA-MB-231) was 15.5 µM (inactive). The GI50 (K562) was 19.4 µM (inactive), the GI50 (NCI/ADR-RES) was 15.2 µM (inactive) and the GI50 (HT-29) was 17.9 µM (inactive). The GI50 (786-0) was 21.3 µM (inactive), the GI50 (UO-31) was 21.6 µM (inactive) and the GI50 (IGROV-1) was 25 µM (inactive). For the same compound, the GI50 (Hs-578T) was 21.9 µM (inactive).
